This passage reports IC50 results from BindingDB's records for patent US20250326732 (Pretzel Therapeutics, 2025).

The target in this experiment is DNA-directed RNA polymerase, mitochondrial (Homo sapiens, UniProt O00411). Kind of experiment: Biological/Biochemical Evaluation. On the procedure:
The ability of some compounds of the present invention to inhibit POLRMT were determined in a homogeneous TR-FRET Assay using high-throughput screening in a 384-well plate format. […] Detection of the product is facilitated by hybridization of two DNA-oligonucleotide probes to specific and adjacent sequences within the RNA product sequence. Upon annealing of the probes, two fluorophores are coupled directly to an acceptor nucleotide probe (ATTO647, 5′), or introduced via a coupled streptavidin with a biotinylated donor nucleotide probe (Europium cryptate) that is brought into sufficient proximity to serve as a fluorescence-donor-acceptor pair. […] The DNA template is restriction linearized proximal to the promotor 3′-end (pUC-LSP). […] No nucleotide triphosphate mix is added to negative control samples. Microplates with compounds to be tested in the assay are prepared from 10 mM compound stocks in 100% DMSO, equal amounts of DMSO without any compound are added to positive control and negative control samples.

DNA-directed RNA polymerase, mitochondrial, sequence (O00411 whole entry): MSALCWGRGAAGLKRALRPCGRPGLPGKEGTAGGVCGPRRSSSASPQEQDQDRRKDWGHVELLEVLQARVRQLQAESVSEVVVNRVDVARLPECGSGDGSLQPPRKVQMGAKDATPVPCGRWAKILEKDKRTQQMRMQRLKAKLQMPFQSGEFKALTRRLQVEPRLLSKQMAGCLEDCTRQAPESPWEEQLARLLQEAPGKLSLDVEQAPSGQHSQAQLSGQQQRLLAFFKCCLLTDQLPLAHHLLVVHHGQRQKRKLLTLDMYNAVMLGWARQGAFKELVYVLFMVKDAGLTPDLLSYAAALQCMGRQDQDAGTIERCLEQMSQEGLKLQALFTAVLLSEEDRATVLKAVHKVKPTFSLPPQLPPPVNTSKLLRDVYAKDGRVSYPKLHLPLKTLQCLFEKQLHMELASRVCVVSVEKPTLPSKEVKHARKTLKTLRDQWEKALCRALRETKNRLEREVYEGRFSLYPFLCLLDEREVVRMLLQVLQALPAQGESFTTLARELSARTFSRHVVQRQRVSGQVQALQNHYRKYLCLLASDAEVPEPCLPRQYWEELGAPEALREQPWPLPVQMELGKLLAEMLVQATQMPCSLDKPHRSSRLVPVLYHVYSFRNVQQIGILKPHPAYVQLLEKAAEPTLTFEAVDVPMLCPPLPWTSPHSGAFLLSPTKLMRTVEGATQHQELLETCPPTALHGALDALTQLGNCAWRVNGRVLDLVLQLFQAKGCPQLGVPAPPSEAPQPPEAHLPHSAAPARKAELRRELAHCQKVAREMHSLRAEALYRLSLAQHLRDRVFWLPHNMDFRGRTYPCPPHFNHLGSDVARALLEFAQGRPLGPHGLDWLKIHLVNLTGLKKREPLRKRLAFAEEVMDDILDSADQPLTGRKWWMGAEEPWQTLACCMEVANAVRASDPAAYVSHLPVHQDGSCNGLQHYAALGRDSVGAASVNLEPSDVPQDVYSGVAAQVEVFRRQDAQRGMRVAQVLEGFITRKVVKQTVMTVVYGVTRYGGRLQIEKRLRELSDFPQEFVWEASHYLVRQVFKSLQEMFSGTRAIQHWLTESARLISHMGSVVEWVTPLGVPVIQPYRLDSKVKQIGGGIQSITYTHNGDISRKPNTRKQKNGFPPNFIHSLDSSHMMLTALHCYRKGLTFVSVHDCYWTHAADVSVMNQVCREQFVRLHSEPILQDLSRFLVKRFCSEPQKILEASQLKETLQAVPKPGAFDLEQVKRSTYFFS

Regarding `CC(=Cc1ccc2c(-c3ccccc3C)cc(=O)oc2c1)C(=O)N(C)C` [US20250326732, Example 65], the IC50 (in general, the concentration that inhibits the measured activity by half) turned out to be 17000 nM. That is a double-digit micromolar value.

In turn, `CC(=Cc1ccc2c(-c3ccccc3C)cc(=O)oc2c1)C(N)=O` [US20250326732, Example 68] registered an IC50 of 600 nM.

The compound `CNC(=O)C(C)=Cc1ccc2c(-c3ccccc3C)cc(=O)oc2c1` [US20250326732, Example 66] came in with an IC50 of 500 nM.

As for `COC=C(Nc1ccc2c(-c3ccccc3)cc(=O)oc2c1)C(N)=O` [US20250326732, Example 198], the IC50 was determined as 2000 nM.

On to `COC=C(Cc1ccc2c(-c3ccccc3C)cc(=O)oc2c1)C(N)=O` [US20250326732, Example 208], for which it took 3000 nM to reach half-maximal inhibition (IC50).

With `COC=C(Cc1ccc2c(-c3ccccc3C)cc(=O)oc2c1)C(N)=O` [US20250326732, Example 207], half-maximal inhibition (IC50) required 17000 nM.

Compound `CC(=Cc1ccc2c(-c3ccccc3C)cc(=O)oc2c1)C(=O)N(C)C` [US20250326732, Example 64] displayed an IC50 of 300 nM.

`CN(C=CC(N)=O)c1ccc2c(-c3ccc(F)cc3Cl)cc(=O)oc2c1` [US20250326732, Example 137] yielded an IC50 of 900 nM.

As to `CNC(=O)C(C)=Cc1ccc2c(-c3ccccc3C)cc(=O)oc2c1` [US20250326732, Example 67], the IC50 was 6000 nM.

The compound `C=C(Nc1ccc2c(-c3ccccc3C)cc(=O)oc2c1)C(N)=O` [US20250326732, Example 189] displayed an IC50 of 900 nM.
